Earlier results, collected in patent US20140100537A1 (MEDICURE INTERNATIONAL INC., priority 2009, published 2014).

Tested on: platelet aggregation
Conditions: typical dosage for tirofiban

In the case of CCCCS(=O)(=O)NC(Cc1ccc(OCCCCC2CCNCC2)cc1)C(=O)O.Cl (stereo not shown) [tirofiban], the “platelet inhibition provided by typical dosage” value is listed as greater than 90%.
